Reference: paper PMC5333395, “Assessing histone demethylase inhibitors in cells: lessons learned” (Epigenetics & Chromatin, 2017)

Columns and labels:
[1] = tested on: Caco-2 human colon carcinoma cell line; experiment: Caco-2 permeability; assay type: in vitro ADME; settings: P app
Procedure: P app (apparent permeability) was determined in the Caco-2 human colon carcinoma cell line essentially as described in [11].

KDM5A = KDM5A (Homo sapiens, UniProt P29375); experiment: AlphaScreen in vitro demethylase assay; assay type: biochemical; settings: IC50 ± SD (number of replicates)
KDM5A, sequence (P29375 whole entry): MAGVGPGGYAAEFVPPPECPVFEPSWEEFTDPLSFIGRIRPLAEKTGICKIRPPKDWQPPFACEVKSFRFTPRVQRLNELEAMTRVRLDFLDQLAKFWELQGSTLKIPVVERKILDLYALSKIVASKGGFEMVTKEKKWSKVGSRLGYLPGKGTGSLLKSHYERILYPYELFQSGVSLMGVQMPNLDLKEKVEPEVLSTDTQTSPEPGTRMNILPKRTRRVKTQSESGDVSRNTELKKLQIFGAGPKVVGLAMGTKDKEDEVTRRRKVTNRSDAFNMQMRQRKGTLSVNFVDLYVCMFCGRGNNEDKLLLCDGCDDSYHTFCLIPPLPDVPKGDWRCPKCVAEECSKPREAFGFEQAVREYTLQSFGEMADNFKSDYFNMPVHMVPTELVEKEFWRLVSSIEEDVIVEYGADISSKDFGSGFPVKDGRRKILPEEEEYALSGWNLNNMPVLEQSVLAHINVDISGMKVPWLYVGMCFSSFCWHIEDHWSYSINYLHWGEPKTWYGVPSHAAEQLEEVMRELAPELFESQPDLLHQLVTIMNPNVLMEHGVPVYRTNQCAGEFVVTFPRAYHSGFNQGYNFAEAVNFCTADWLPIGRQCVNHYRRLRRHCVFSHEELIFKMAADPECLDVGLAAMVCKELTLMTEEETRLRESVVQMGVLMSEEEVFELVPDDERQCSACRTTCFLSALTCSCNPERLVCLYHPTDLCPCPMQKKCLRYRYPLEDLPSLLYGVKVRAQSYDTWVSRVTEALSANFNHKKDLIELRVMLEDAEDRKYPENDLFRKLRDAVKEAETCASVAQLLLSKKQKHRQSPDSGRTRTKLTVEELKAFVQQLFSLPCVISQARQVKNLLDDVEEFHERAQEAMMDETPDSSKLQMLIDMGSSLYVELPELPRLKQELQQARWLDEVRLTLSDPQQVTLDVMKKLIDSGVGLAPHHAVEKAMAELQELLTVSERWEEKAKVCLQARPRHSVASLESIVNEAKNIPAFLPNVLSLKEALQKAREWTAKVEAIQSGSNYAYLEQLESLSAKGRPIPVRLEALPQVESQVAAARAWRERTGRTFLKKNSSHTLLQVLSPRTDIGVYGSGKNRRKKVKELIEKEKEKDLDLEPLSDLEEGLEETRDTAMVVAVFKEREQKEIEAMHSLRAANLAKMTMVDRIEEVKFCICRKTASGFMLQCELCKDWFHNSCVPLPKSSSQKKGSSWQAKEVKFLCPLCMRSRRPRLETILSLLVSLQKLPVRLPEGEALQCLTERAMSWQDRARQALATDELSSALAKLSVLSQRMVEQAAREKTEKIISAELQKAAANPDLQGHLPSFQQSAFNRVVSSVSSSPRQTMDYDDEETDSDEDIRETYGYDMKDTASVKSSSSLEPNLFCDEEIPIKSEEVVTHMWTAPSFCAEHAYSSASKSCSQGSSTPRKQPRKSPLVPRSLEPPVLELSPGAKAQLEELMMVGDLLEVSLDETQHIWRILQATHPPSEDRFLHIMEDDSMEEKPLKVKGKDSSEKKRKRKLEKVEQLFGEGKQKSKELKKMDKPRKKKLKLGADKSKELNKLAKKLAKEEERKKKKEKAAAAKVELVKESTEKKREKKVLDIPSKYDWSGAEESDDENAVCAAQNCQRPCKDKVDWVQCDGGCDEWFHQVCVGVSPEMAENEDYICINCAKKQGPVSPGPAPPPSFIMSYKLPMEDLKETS
Procedure: IC50 values were determined as previously described. The following amendments were made to the protocol for carrying out 2-OG competition assays.

KDM4B = biological target: T1, KDM4B (Homo sapiens, UniProt O94953); experiment: High-content immunofluorescence (IF) assay, overexpressed full-length FLAG-tagged KDM in HeLa cells; assay type: cell-based; settings: HeLa cells overexpressing WT KDM4B, H3K9me3 mark, 24 h; read-out: KDM4B, in cells, EC50 by IF assay (head: IC50)
T1 sequence (O94953 1-1096): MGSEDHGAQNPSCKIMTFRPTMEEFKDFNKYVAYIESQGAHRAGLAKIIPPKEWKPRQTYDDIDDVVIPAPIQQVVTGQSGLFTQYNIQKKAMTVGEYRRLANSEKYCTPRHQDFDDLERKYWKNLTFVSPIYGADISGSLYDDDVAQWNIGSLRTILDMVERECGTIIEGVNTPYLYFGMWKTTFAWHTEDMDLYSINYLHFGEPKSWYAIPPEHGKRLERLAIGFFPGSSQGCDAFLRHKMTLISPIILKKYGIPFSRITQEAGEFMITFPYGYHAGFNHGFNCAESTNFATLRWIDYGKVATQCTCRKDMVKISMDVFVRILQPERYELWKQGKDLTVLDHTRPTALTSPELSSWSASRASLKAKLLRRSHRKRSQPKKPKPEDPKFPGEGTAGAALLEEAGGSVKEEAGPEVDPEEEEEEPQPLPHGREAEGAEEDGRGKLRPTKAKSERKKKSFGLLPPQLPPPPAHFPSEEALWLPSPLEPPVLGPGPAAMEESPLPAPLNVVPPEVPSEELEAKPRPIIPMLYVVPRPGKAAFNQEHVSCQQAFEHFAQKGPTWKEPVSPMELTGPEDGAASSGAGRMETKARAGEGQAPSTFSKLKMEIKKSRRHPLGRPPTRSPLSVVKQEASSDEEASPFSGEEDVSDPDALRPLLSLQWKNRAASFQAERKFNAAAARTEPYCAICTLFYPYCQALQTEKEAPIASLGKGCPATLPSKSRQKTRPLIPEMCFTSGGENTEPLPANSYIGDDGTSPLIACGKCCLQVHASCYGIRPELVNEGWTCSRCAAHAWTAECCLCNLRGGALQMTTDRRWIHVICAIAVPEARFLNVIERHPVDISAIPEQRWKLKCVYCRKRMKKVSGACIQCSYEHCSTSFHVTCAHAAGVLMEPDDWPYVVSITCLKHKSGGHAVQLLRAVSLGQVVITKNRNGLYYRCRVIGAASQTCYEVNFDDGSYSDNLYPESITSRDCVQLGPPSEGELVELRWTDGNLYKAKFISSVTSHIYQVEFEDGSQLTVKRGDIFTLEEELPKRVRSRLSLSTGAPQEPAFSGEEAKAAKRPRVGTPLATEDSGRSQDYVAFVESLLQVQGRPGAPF
Procedure: (§1) HeLa cells (ATCC) were cultured at 37 °C and 5% CO2 in Minimal Essential Media—Eagle (Sigma-Aldrich, UK) supplemented with 10% heat-inactivated foetal calf serum (FCS) (Gibco, UK), and 1% L-glutaMAX (Gibco, UK) in T75 flasks (Sarstedt, UK) and passaged regularly with TrypLE (Life Technologies, UK) before cells reached confluence. On day 0, 7000 cells per well were plated on a 96-well clear bottom CellCarrier plate (PerkinElmer, UK). The next day the cells were transfected with Lipofectamine 3000 (ThermoFisher Scientific, UK) following the manufacturer’s instructions. Briefly, 0.1 µg of plasmid DNA (encoding for the respective demethylase) and 0.15 µL of Lipofectamine 3000 were diluted in separate tubes containing 5 µL OptiMEM. 0.15 µL of P3000 was added to the tube with the DNA. The two solutions were then mixed gently and allowed to incubate for 5 min at room temperature. Next, the DNA-lipid complex was added to the cells for 4 h at 37 °C and 5% CO2.
(§2) Compound dilutions were made in a 96-well PCR plate (Starlab, UK). The culture medium was supplemented with 0.4% DMSO so that the solvent concentration was maintained throughout. Compounds were serially diluted at a 1:2 or 1:3 dilution ratio. Next, the cell culture plate was removed from the incubator and the medium was gently aspirated and replaced with the fresh medium containing diluted compounds.
(§3) Then cells were rinsed once with PBS and blocked for 30 min at room temperature using 3% v/v foetal calf serum diluted in PBS.

KDM4C = biological target: T2, KDM4C (Homo sapiens, UniProt Q9H3R0); experiment: as above; assay type: cell-based; settings: HeLa cells overexpressing WT KDM4C, H3K9me3 mark, 24 h; read-out: KDM4C, in cells, EC50 by IF assay (head: IC50)
T2 sequence (Q9H3R0 1-1056): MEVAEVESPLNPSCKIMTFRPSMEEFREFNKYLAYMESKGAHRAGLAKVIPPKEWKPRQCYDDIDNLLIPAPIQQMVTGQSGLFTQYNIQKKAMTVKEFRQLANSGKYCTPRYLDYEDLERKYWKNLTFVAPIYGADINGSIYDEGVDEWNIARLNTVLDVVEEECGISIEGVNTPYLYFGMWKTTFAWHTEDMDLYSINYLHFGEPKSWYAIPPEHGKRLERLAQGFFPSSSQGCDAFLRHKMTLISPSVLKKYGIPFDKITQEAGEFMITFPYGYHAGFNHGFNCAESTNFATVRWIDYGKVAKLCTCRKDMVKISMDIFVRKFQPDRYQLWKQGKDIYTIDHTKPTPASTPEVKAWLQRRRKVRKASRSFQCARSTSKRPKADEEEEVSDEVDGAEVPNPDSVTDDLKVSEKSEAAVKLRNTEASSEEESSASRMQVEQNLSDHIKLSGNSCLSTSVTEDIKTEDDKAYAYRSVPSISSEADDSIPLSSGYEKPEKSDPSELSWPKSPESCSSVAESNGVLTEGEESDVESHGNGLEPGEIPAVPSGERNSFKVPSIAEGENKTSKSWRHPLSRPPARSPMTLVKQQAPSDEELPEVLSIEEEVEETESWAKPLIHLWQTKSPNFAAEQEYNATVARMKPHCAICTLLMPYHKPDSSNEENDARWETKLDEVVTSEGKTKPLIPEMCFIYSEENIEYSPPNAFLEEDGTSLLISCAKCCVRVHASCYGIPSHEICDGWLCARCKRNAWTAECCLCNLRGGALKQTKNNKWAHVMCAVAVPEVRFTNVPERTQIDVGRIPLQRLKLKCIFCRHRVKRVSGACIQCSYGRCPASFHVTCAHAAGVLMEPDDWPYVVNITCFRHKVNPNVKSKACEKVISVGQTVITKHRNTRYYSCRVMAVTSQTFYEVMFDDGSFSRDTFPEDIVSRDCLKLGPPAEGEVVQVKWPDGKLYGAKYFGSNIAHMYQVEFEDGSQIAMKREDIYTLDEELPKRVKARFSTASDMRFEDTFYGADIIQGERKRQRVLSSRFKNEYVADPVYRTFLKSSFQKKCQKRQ
Procedure: as §1, §2, §3

Row | Molecule | Caco-2 (A to B flux) [1] [cm/s] | IC50 (KDM5A) [µM] | EC50 (KDM4B) [µM] | EC50 (KDM4C) [µM]
1 | CPI-455 | 5.21e-06 | – | – | –
2 | CCOC(=O)c1ccnc(CNCC(=O)N(CC)CCN(C)C)c1 [KDOAM-21] | 5.32e-06 | 0.068 ± 0.01 | 10 | 17.9
3 | CCN(CCN(C)C)C(=O)CNCc1cncc(C(N)=O)c1 [KDOAM-32] | – | – | > 100 | > 100
4 | CCN(CCN(C)C)C(=O)CNCc1cc(C(=O)O)ccn1 [KDOAM-20] | – | 0.01 ± 0.003 | – | –
